Measurements from patent US4189604A, “Bestatin” (Zaidan Hojin Biseibutsu Kagaku Kenkyu Kai, priority 1975, dated 1980).
Converted amounts (≈) assume the structure as drawn. Read-outs that look alike come from different tables or passages of the source.

Key:
[1] = test system: plaque forming cells in the spleen; experiment: Effect on humoral antibody formation to Sheep Red Blood Cell (SRBC) in mice (JERNE's hemolytic plaque technique); format: in vivo, Mice (dd/y female); details: for Antibody Forming Cells Number / Antibody Forming Cells Treated Group / Non-treated Group: intraperitoneal, four days
Protocol: The compound of Example 28 was also tested for its humoral antibody formation to find its efficacy as an immunizing cancer inhibitor. […] For the humoral antibody formation of Bestatin per se see J. Antibiotics, 29(8), 857-859 (August, 1976).
The effect of (2RS,3RS)-3-amino-2-hydroxy-4-hydroxyphenylbutanoyl-(S)-leucine on humoral antibody formation to Sheep Red Blood Cell (SRBC) in mice was studied as follows.
Mice (dd/y female) were immunized by intravenous injection of 10^8 SRBC. Intraperitoneal injection of (2RS,3RS)-3-amino-2-hydroxy-4-hydroxyphenylbutanoyl-(S)-leucine was made soon afterwards.
Four days thereafter the number of plaque forming cells in the spleen were enumerated by JERNE's hemolytic plaque technique [Jerne, N. K.; A. A. Nordin & C. Henry: "The Agar Plaque Technique for Recognizing Antibody-producing Cells" in cell-bound antibodies (Wistar Institute Press, Philadelphia, 1963), pp. 109-122].

aminopeptidase B = target: T1, aminopeptidase B (Rattus norvegicus, UniProt O09175); experiment: Inhibitory activity against aminopeptidase B; format: biochemical; details: for IC50: read-out: ID50 (the source's name) (converted); for inhibitory effect relative to Bestatin: compared with Bestatin
T1 construct: aminopeptidase B solution which is prepared by Sephadex 100 chromatography as described by Hopusu et al; from tissue
T1 sequence (O09175 1-650): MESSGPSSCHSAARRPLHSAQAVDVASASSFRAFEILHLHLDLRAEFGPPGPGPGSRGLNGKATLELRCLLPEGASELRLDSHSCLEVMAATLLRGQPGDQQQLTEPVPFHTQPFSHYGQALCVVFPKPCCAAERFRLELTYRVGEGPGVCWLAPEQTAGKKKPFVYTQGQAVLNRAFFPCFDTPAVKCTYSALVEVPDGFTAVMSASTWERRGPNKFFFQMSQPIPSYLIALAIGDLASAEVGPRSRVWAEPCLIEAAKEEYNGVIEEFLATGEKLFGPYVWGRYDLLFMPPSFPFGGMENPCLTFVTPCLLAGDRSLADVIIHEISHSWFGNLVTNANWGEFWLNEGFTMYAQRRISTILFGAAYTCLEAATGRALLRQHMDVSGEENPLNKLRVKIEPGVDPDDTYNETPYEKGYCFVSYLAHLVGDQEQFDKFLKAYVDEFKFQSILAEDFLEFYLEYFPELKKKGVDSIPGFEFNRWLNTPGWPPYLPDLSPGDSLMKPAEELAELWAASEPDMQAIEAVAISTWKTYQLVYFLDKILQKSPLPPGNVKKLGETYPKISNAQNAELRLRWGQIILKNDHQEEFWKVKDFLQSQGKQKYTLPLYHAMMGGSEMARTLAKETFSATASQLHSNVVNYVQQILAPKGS
Protocol: (A) Inhibitory activity against aminopeptidase B Testing method: The method described by […] in Archives of Biochemistry and Biophysics 114, 557, (1966) was modfied. To the mixture of 0.3 ml. of 1 mM arginine β-naphthylamide and 1.0 Ml. of 0.1 M Tris hydrochloride buffer (pH 7.0), 0.7 Ml. of distilled water with or without a test material is added and warmed at 37° C. for 3 minutes. The reaction is started by addition of 0.2 ml. of aminopeptidase B solution which is prepared by Sephadex 100 chromatography as described by Hopusu et al. […] Fifteen minutes at room temperature thereafter, absorbance (a) at 530 nm is measured by spectrophotometer. […] The inhibition percent is calculated as follows: (b-a)/b×100.

[2] = Biological Testing table after Example 29
[3] = pH 7.0, 37° C., 30 minutes, Table 1

SMILES: CC(C)C[C@H](NC(=O)C(O)C(N)Cc1ccc(O)cc1)C(=O)O (stereo partly drawn) [Example 28, (2RS,3RS)-3-amino-2-hydroxy-4-p-hydroxyphenylbutanoyl-(S)-leucine]
- number of antibody forming cells relative to non-treated mice ([1]; 1 mcg.): 1.41 times
- number of antibody forming cells relative to non-treated mice ([1]; 10 mcg.): 1.66 times
- Antibody Forming Cells Number ([1]; dose 1 mg.): 207,400±8,025
- Antibody Forming Cells Treated Group / Non-treated Group ([1]; dose 1 mg.): 1.66
- Antibody Forming Cells Number ([1]; dose 0.1 mcg.): 141,000±5,700
- Antibody Forming Cells Treated Group / Non-treated Group ([1]; dose 0.1 mcg.): 1.13
- Antibody Forming Cells Number ([1]; dose 1 mcg.): 175,800±8,200
- Antibody Forming Cells Treated Group / Non-treated Group ([1]; dose 1 mcg.): 1.41
- Antibody Forming Cells Number ([1]; dose 10 mcg.): 208,000±7,180
- Antibody Forming Cells Treated Group / Non-treated Group ([1]; dose 10 mcg.): 1.66
- Antibody Forming Cells Number ([1]; dose 100 mcg.): 261,000±11,700
- Antibody Forming Cells Treated Group / Non-treated Group ([1]; dose 100 mcg.): 2.09
- number of humoral antibody (forming) cells ([1]; in words): increasing the number of humoral antibody cells to a considerable degree
- number of nonspecific antibody forming cells ([1]; in words): did not increase the weight of the spleen or the number of nonspecific antibody forming cells
- weight of the spleen ([1]; in words): did not increase the weight of the spleen
- number of humoral antibody (forming) cells ([1]; in words, listed as (2RS,3RS)-3-amino-2-hydroxy-4-hydroxybutanoyl-(S)-leucine): excellent effect of increasing the number of antibody forming cells
- IC50 (aminopeptidase B; [2]): 308 nM
- inhibitory effect relative to Bestatin (aminopeptidase B): substantially the same inhibitory effects as Bestatin

SMILES: CC(C)C[C@H](NC(=O)[C@@H](O)[C@H](N)Cc1ccc(O)cc1)C(=O)O [Example 29, (2S,3R)-3-amino-2-hydroxy-4-p-hydroxyphenylbutanoyl-(S)-leucine]
- IC50 (aminopeptidase B; [2]): 21.6 nM
- inhibitory effect relative to Bestatin (aminopeptidase B): one-fourteenth of Bestatin

SMILES: CC(C)C[C@H](NC(=O)[C@@H](O)[C@@H](N)Cc1ccccc1)C(=O)O [No. 2, (2S,3S)-3-amino-2-hydroxy-4-phenylbutanoyl-(S)-leucine]
- ID50 (aminopeptidase B; [3]): 1.25 µg/mL (≈ 4.05 µM)

SMILES: CC(C)C[C@@H](NC(=O)[C@@H](O)[C@H](N)Cc1ccccc1)C(=O)O [No. 3, (2S,3R)-3-amino-2-hydroxy-4-phenylbutanoyl-(R)-leucine]
- ID50 (aminopeptidase B; [3]): 0.56 µg/mL (≈ 1.82 µM)

SMILES: CC(C)C[C@@H](NC(=O)[C@@H](O)[C@@H](N)Cc1ccccc1)C(=O)O [No. 4, (2S,3S)-3-amino-2-hydroxy-4-phenylbutanoyl-(R)-leucine]
- IC50 (aminopeptidase B; [3]): 130 nM

SMILES: N[C@H](Cc1ccccc1)[C@H](O)C(=O)NCC(=O)O [No. 5, (2S,3R)-3-amino-2-hydroxy-4-phenylbutanoyl-glycine]
- ID50 (aminopeptidase B; [3]): 21.5 µg/mL (≈ 85.2 µM)

SMILES: CC[C@H](C)[C@H](NC(=O)[C@@H](O)[C@H](N)Cc1ccccc1)C(=O)O [No. 7, (2S,3R)-3-amino-2-hydroxy-4-phenylbutanoyl-(S)-isoleucine]
- IC50 (aminopeptidase B; [3]): 162 nM

SMILES: CSCC[C@H](NC(=O)[C@@H](O)[C@H](N)Cc1ccccc1)C(=O)O [No. 8, (2S,3R)-3-amino-2-hydroxy-4-phenylbutanoyl-(S)-methionine]
- ID50 (aminopeptidase B; [3]): 0.22 µg/mL (≈ 0.674 µM)

SMILES: NC(=O)CC[C@H](NC(=O)[C@@H](O)[C@H](N)Cc1ccccc1)C(=O)O [No. 9, (2S,3R)-3-amino-2-hydroxy-4-phenylbutanoyl-(S)-glutamine]
- ID50 (aminopeptidase B; [3]): 1.2 µg/mL (≈ 3.71 µM)

SMILES: CCCC[C@H](NC(=O)[C@@H](O)[C@H](N)Cc1ccccc1)C(=O)O [No. 11, (2S,3R)-3-amino-2-hydroxy-4-phenylbutanoyl-(S)-norleucine]
- ID50 (aminopeptidase B; [3]): 0.13 µg/mL (≈ 0.422 µM)

SMILES: N[C@H](Cc1ccccc1)[C@H](O)C(=O)N[C@@H](Cc1ccccc1)C(=O)O [No. 12, (2S,3R)-3-amino-2-hydroxy-4-phenylbutanoyl-(S)-phenylalanine]
- ID50 (aminopeptidase B; [3]): 4.2 µg/mL (≈ 12.3 µM)

SMILES: N[C@H](Cc1ccccc1)[C@H](O)C(=O)N[C@@H](CO)C(=O)O [No. 13, (2S,3R)-3-amino-2-hydroxy-4-phenylbutanoyl-(S)-serine]
- IC50 (aminopeptidase B; [3]): 2550 nM

SMILES: N[C@H](Cc1ccccc1)[C@H](O)C(=O)N[C@@H](CCC(=O)O)C(=O)O [No. 14, (2S,3R)-3-amino-2-hydroxy-4-phenylbutanoyl-(S)-glutamic acid]
- ID50 (aminopeptidase B; [3]): 25 µg/mL (≈ 77.1 µM)

SMILES: CCCCCCC(NC(=O)[C@@H](O)[C@H](N)Cc1ccccc1)C(=O)O (stereo partly drawn) [No. 15, (2S,3R)-3-amino-2-hydroxy-4-phenylbutanoyl-(RS)-2-aminooctanoic acid]
- ID50 (aminopeptidase B; [3]): 3.1 µg/mL (≈ 9.21 µM)

SMILES: CC(C)C[C@H](NC(=O)C(O)[C@@H](C)N)C(=O)O (some centres unmarked) [No. 16]
- ID50 (aminopeptidase B; [3]): 16 µg/mL (≈ 68.9 µM)

SMILES: CC(C)C[C@H](NC(=O)C(O)[C@H](N)CC(C)C)C(=O)O (stereo partly drawn) [No. 17, (2RS,3R)-30 amino-2-hydroxy-5-methylhexanoyl-(S)-leucine]
- ID50 (aminopeptidase B; [3]): 12 µg/mL (≈ 43.7 µM)

SMILES: CC(C)C[C@H](NC(=O)C(O)[C@H](N)c1ccccc1)C(=O)O (stereo partly drawn) [No. 18, (2RS,3R)-3-amino-2-hydroxy-3-phenylpropionyl-(S)-leucine]
- ID50 (aminopeptidase B; [3]): 56 µg/mL (≈ 190 µM)

SMILES: CC(C)C[C@H](NC(=O)C(O)C(N)Cc1ccc(Cl)cc1)C(=O)O (stereo partly drawn) [No. 19, (2RS,3RS)-3-amino-2-hydroxy-4-p-chlorophenylbutanoyl-(S)-leucine]
- number of antibody forming cells compared with non-treated group ([1]; 10 mcg., in words): nearly equal to that of non-treated group
- Antibody Forming Cells Number ([1]; dose 1 mg.): 208,750±8,000
- Antibody Forming Cells Treated Group / Non-treated Group ([1]; dose 1 mg.): 1.67
- Antibody Forming Cells Number ([1]; dose 10 mcg.): 133,750±5,600
- Antibody Forming Cells Treated Group / Non-treated Group ([1]; dose 10 mcg.): 1.07

SMILES: Cc1ccc(CC(N)C(O)C(=O)N[C@@H](CC(C)C)C(=O)O)cc1 (stereo partly drawn) [No. 21, (2RS,3RS)-3-amino-2-hydroxy-4-p-methylphenylbutanoyl-(S)-leucine]
- ID50 (aminopeptidase B; [3]): 0.01 µg/mL (≈ 0.031 µM)

SMILES: CC(C)C[C@H](NC(=O)[C@@H](O)[C@H](N)Cc1ccc([N+](=O)[O-])cc1)C(=O)O [No. 22, (2S,3R)-3-amino-2-hydroxy-4-p-nitrophenylbutanoyl-(S)-leucine]
- ID50 (aminopeptidase B; [3]): 0.01 µg/mL (≈ 0.0283 µM)

SMILES: CC(C)C[C@H](NC(=O)[C@@H](O)[C@H](N)Cc1ccc(N)cc1)C(=O)O [No. 23, (2S,3R)-3-amino-2-hydroxy-4-p-aminophenylbutanoyl-(S)-leucine]
- ID50 (aminopeptidase B; [3]): 0.10 µg/mL (≈ 0.309 µM)

SMILES: CC(C)C[C@H](NC(=O)[C@@H](O)[C@H](N)CC1CCCCC1)C(=O)O [No. 24, (2S,3R)-3-amino-2-hydroxy-4-cyclohexylbutanoyl-(S)-leucine]
- IC50 (aminopeptidase B; [3]): 3340 nM
